From US10053445B2, “Photocleavable chemical inducers of dimerization (CID) and methods of use” (Children's Medical Center Corporation, priority 2013, dated 2018)

What was measured:
[1] = target: FK506 Binding Protein (FKBP) (Homo sapiens, UniProt P62942); conditions: ligand independently; cited from earlier work
mutated FKBP = mutated FKBP (Homo sapiens, UniProt P62942, F37V); conditions: cited from earlier work
COS cells = test: peroxisome translocation assay (PEX-RFP-FKBP / DHFR-Kif 1a motor domain); format: cell-based
Protocol: Preliminary tests of Zapalog efficacy in COS cells were also carried out, using a peroxisome translocation assay adapted from Kapitein et al., 2010 (13) and illustrated in FIG. 4. The FKBP domain is coupled to RFP and a peroxisome-binding domain (PEX). The DHFR domain is fused to the motor domain of the kinesin Kif 1a. In the absence of a CID to couple these two proteins, the peroxisomes are stationary and located near the nucleus while the motor (visualized by immunocytochemistry) is diffuse in the cytosol (FIG. 4 DMSO). […] In a live-imaging experiment (FIG. 5), the addition of Zapalog initiated clear movement of the peroxisomes in less than 2 minutes. The dispersal of peroxisomes was reversed by exposure to a 405 nm laser. […] 5) the affinity of Zapalog in vivo is high enough to permit the transport of an organelle by a tethered motor. 6) Zapalog is photo-cleavable in vivo by 405 nm light. […] The experiments described herein seek to characterize Zapalog in sufficient detail to enable its use as a photo-cleavable CID. In particular, experiments were designed to determine the kinetics of Zapalog-induced dimerization and cleavage and whether it could be used to recreate a fully functional split kinesin for studies of motor interactions.

[2] = HPLC analysis of Zapalog before and after exposure to 405 nm light; format: physicochemical; conditions: after exposure to 405 nm light
Protocol: Zapalog was synthesized and 10 mg of TLC purified material was determined to be >98% pure by LCMS/HPLC and containing less than 0.1% of the monomeric ligands TMP and SLF.

COST cells = test: YFP reporter relocalization to outer mitochondrial membrane (YFP-DHFR / Tom20-mCherry-FKBP); format: cell-based
Source text: In one set of experiments, Zapalog's efficacy as a dimerizing agent and the efficacy of light-induced cleavage was examined in simple assays of subcellular localization of a YFP reporter adapted from Komatsu et al., (Komatsu et al. Nature Methods 7: 206-8) and illustrated in FIG. 7 (optionally, a GFP or other reporter could have been used). An assay of Zapalog function was developed based on tethering a YFP reporter to the outer mitochondrial membrane of COST cells. In this assay, the YFP reporter was fused to the DHFR domain and, by default, was cytosolic. The FKBP domain was bound to the outer membrane of mitochondria with the N-terminus sequence of Tom20. The FKBP construct was tagged with mCherry. […] Subsequent 405 nm illumination caused immediate (<5 sec) release of YFP back to the cytosol. This redistribution was followed in video microscopy and quantified as a ratio of membrane bound to cytoplasmic fluorescence intensity

Chain of FK506 Binding Protein (FKBP) (P62942 whole entry): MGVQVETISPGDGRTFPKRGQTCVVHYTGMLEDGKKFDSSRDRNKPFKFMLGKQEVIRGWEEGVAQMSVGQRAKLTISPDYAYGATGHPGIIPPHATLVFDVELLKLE
Chain of mutated FKBP (P62942 2-108 F37V limits assumed): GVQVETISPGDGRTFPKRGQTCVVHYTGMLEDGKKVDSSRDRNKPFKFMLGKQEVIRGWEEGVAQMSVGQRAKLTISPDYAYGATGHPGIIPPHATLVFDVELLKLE

## CCC(C)(C)C(=O)C(=O)N1CCCCC1C(=O)OC(CCc1ccc(OC)c(OC)c1)c1cccc(N)c1 (stereo not drawn) [SLF]
[1]
  affinity: ~1 nM

## CCC(C(=O)N1CCCCC1C(=O)O[C@H](CCc1ccc(OC)c(OC)c1)c1cccc(OCC(=O)O)c1)c1cc(OC)c(OC)c(OC)c1 (stereo partly drawn) [SLF′]
Mutated FKBP
  Kd: 0.094 nM

## CCC(C)(C)C(=O)C(=O)N1CCCC[C@H]1C(=O)O[C@H](CCc1ccc(OC)c(OC)c1)c1cccc(NC(=O)CCCOc2cc([N+](=O)[O-])c(C(C)OCCOc3c(OC)cc(Cc4cnc(N)nc4N)cc3OC)cc2OC)c1 (stereo partly drawn) [Zapalog]
COS cells
  binding to DHFR and FKBP domains in vivo: can bind to the DHFR and FKBP domains in vivo
  heterodimerization: can cause heterodimerization
  toxicity to cells: not toxic to cells
COS cells; 1 uM, in the dark, COS cells
  translocation of motor domain to peroxisomes and redistribution of peroxisomes: caused the translocation of the motor domain to the peroxisomes and the redistribution of the peroxisomes to the periphery of the cell
COS cells; COS cells, light after CID addition
  effect of exposure of treated cells to light: caused the motor to detach from peroxisomes and resume its diffuse distribution
COS cells; live imaging
  time to clear movement of peroxisomes after addition: less than 2 minutes
COS cells; live imaging, 405 nm laser
  dispersal of peroxisomes after 405 nm laser: reversed
[2]
  photolytic cleavage by HPLC: complete photolytic cleavage
COST cells; 1 μM in the dark
  time to relocalization of YFP to the mitochondrial surface: 4 to 5 min
COST cells; subsequent 405 nm illumination
  time to release of YFP back to the cytosol: < 5 s
